Data from ChEMBL document CHEMBL1140931, “Discovery of the first selective inhibitor of excitatory amino acid transporter subtype 1” (J Med Chem, 2009).
Activity calls are given as the source filed them. No cut-off for these calls is given here.

Assays:
[1] = target: T1, Excitatory amino acid transporter 1 (Homo sapiens, UniProt P43003); experiment: Displacement of [3H]D-Asp from human EAAT1 receptor expressed in HEK293 cells
[2] = target: Excitatory amino acid transporter 2 (Homo sapiens, UniProt P43004); experiment: Displacement of [3H]D-Asp from human EAAT2 receptor expressed in HEK293 cells
Excitatory amino acid transporter 2, sequence (P43004 whole entry): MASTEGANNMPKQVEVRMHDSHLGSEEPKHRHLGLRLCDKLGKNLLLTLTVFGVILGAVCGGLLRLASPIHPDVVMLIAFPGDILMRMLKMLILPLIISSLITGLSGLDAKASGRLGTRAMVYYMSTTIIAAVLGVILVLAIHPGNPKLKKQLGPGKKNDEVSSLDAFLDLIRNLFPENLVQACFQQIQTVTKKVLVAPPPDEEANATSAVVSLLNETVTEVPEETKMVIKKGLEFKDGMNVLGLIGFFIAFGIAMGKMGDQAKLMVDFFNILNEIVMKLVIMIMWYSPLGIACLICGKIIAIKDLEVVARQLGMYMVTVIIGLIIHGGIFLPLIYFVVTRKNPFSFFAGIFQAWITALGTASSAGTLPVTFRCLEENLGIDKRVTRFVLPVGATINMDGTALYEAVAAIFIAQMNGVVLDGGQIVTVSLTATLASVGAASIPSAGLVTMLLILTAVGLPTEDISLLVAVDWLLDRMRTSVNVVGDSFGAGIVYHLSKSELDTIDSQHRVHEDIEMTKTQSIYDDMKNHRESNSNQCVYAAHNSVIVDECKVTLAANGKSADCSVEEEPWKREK

[3] = target: T2, Excitatory amino acid transporter 3 (Homo sapiens, UniProt P43005); experiment: Displacement of [3H]D-Asp from human EAAT3 receptor expressed in HEK293 cells
T2 sequence (P43005 whole entry): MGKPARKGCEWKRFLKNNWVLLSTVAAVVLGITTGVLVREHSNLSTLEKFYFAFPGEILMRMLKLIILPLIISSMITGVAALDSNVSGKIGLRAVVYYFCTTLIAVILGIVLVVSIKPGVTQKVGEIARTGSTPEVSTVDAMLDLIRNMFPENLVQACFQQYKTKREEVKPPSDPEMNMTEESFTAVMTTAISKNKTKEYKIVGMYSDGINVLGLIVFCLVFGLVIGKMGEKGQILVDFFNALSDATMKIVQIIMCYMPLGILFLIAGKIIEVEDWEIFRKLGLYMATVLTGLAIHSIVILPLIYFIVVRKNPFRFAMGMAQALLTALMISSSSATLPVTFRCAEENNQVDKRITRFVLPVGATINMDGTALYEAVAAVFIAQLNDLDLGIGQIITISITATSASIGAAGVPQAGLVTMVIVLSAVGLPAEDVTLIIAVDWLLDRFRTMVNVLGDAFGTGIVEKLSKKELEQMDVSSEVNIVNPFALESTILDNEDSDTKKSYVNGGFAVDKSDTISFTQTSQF

[4] = target: T1, Excitatory amino acid transporter 1; experiment: Activity of human EAAT1 expressed in HEK293 cells up to 100 uM; type: cell-based
[5] = target: T3, Excitatory amino acid transporter 3 (Homo sapiens) (UniProt P43005); experiment: Activity of human EAAT3 expressed in HEK293 cells up to 100 uM; type: cell-based
T3 sequence (whole entry): T2 sequence (P43005 whole entry)

[6] = target: T1, Excitatory amino acid transporter 1; experiment: Activity at human EAAT1 expressed in HEK293 cells assessed as inhibition of Glu-induced fluorescent response by FLIPR membrane potential blue assay
[7] = target: T4, Excitatory amino acid transporter 1 (Rattus norvegicus, UniProt P24942); experiment: Activity at rat EAAT1 expressed in TSA201 cells assessed as inhibition of Glu-induced fluorescent response by FLIPR membrane potential blue assay; type: cell-based
T4 sequence (P24942 whole entry): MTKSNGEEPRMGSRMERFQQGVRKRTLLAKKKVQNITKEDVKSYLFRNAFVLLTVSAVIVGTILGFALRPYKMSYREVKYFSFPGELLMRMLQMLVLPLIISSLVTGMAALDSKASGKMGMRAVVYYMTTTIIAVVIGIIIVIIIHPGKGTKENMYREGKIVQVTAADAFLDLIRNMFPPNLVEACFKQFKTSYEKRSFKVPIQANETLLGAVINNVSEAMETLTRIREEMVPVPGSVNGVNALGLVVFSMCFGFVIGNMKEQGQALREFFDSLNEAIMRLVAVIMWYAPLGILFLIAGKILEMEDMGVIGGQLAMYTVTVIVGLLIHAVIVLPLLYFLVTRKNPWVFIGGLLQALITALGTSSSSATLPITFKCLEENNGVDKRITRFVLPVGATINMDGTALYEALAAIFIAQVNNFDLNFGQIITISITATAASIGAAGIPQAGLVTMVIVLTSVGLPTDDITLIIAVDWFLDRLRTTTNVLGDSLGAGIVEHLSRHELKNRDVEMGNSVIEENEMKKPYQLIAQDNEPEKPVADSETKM

T1 sequence (P43003 whole entry): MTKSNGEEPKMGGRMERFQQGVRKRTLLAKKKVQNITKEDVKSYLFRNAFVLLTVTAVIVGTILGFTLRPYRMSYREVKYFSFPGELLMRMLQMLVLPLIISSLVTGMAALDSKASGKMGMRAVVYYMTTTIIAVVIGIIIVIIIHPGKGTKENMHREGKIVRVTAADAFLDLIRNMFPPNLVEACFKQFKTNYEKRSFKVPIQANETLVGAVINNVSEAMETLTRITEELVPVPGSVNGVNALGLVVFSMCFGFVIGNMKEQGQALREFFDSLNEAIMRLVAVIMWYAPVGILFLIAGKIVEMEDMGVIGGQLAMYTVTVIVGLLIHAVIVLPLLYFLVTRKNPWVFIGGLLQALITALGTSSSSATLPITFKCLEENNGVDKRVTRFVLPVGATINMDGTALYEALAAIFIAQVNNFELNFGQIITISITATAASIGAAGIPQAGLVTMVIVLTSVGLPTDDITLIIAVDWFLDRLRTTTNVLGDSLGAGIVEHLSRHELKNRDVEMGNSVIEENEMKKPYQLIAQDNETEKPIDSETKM

Row | SMILES | IC50 [1] | IC50 [2] | IC50 [3] | Activity [4] | Activity [5] | IC50 [6] | IC50 [7] | IC50 ([2]; hek293) | IC50 ([3]; hek293)
1 | COc1cc(C2C(C#N)=C(N)OC3=C2C(=O)CC(c2ccccc2)C3)ccc1OCc1c(F)cccc1Cl (centres undefined) | 4.3 µM | > 100 µM | > 100 µM | – | – | – | – | – | –
2 | N#CC1=C(N)OC2=C(C1)C(=O)CC(c1ccccc1)C2 (centres undefined) | > 300 µM | > 316 µM | > 316 µM | – | – | – | – | – | –
3 | N#CC1=C(N)OC2=C(C(=O)CC(c3ccccc3)C2)C1c1ccc2c(c1)OCO2 (centres undefined) | 4 µM | > 316 µM | > 316 µM | – | – | – | – | – | –
4 | N[C@@H](COS(=O)(=O)O)C(=O)O | 100 µM | – | 100 µM | – | – | – | – | – | –
5 | N#CC1=C(N)OC2=C(C(=O)CC(c3ccccc3)C2)C1c1cc(Br)cs1 (centres undefined) | 4.7 µM | > 100 µM | > 100 µM | – | – | – | – | – | –
6 | N#CC1=C(N)OC2=C(C(=O)CC(c3ccccc3)C2)C1c1cccs1 (centres undefined) | 14 µM | > 100 µM | > 100 µM | – | – | – | – | – | –
7 | N#CC1=C(N)OC2=C(C(=O)CCC2)C1c1ccccc1F (centres undefined) | > 300 µM | > 316 µM | > 316 µM | – | – | – | – | – | –
8 | N#CC1=C(N)OC2=C(C(=O)CC(c3ccccc3)C2)C1c1ccccc1F (centres undefined) | 4.7 µM | > 100 µM | > 100 µM | – | – | – | – | – | –
9 | N#CC1=C(N)OC2=C(C(=O)CC(c3ccco3)C2)C1c1ccccc1 (centres undefined) | 7.3 µM | > 316 µM | > 316 µM | – | – | – | – | – | –
10 | CC1CC(=O)C2=C(C1)OC(N)=C(C#N)C2c1ccc2c(c1)OCO2 (centres undefined) | > 300 µM | > 316 µM | > 316 µM | – | – | – | – | – | –
11 | COc1ccc(C2C(C#N)=C(N)OC3=C2C(=O)CC(c2ccco2)C3)cc1OC(=O)N1CCOCC1 (centres undefined) | 100 µM | > 316 µM | > 316 µM | – | – | – | – | – | –

Now from value to molecule:

Row | IC50 [1] | IC50 [2] | IC50 [3] | Activity [4] | Activity [5] | IC50 [6] | IC50 [7] | IC50 ([2]; hek293) | IC50 ([3]; hek293) | SMILES
12 | 0.66 µM | > 316 µM | > 316 µM | inactive | inactive | 0.12 µM | 0.97 µM | – | – | COc1ccc(C2C(C#N)=C(N)OC3=C2C(=O)CC(c2cccc4ccccc24)C3)cc1 (centres undefined)
13 | 2.1 µM | > 100 µM | > 100 µM | – | – | – | – | – | – | N#CC1=C(N)OC2=C(C(=O)CC(c3ccccc3)C2)C1c1ccc(-c2ccccc2)cc1 (centres undefined)
14 | 2.7 µM | > 100 µM | > 100 µM | – | – | – | – | – | – | CSc1ccc(C2C(C#N)=C(N)OC3=C2C(=O)CC(c2ccccc2)C3)cc1 (centres undefined)
15 | 3.2 µM | > 316 µM | > 316 µM | – | – | – | – | – | – | COc1ccc(C2C(C#N)=C(N)OC3=C2C(=O)CC(c2ccccc2Cl)C3)cc1 (centres undefined)
16 | 9.9 µM | > 316 µM | > 316 µM | – | – | – | – | – | – | N#CC1=C(N)OC2=C(C(=O)CC(c3cccs3)C2)C1c1ccc([N+](=O)[O-])cc1 (centres undefined)
17 | ~50 µM | > 100 µM | > 100 µM | – | – | – | – | – | – | COc1cccc(C2C(C#N)=C(N)OC3=C2C(=O)CC(c2ccccc2)C3)c1OC (centres undefined)
18 | – | > 100 µM | > 100 µM | – | – | – | – | – | – | COc1ccc(C2C(C#N)=C(N)OC3=C2C(=O)CC(c2ccccc2)C3)cc1 (centres undefined)
19 | 9.2 µM | > 316 µM | > 316 µM | – | – | – | – | – | – | CC1C(C#N)=C(N)OC2=C1C(=O)CC(c1ccccc1)C2 (centres undefined)
20 | 7.4 µM | > 100 µM | > 100 µM | – | – | – | – | – | – | N#CC1=C(N)OC2=C(C(=O)CC(c3ccccc3)C2)C1c1cccc2ccccc12 (centres undefined)
21 | > 100 µM | > 100 µM | > 100 µM | – | – | – | – | > 100 µM | > 100 µM | N#CC1=C(N)OC2=C(C(=O)CC(c3ccccc3)C2)C1c1c[nH]c2ccccc12 (centres undefined)
22 | 30 µM | > 316 µM | > 316 µM | – | – | – | – | – | – | N#CC1=C(N)OC2=C(C(=O)CC(c3ccccc3)C2)C1c1cccnc1 (centres undefined)
23 | 3.6 µM | > 100 µM | > 100 µM | – | – | – | – | – | – | N#CC1=C(N)OC2=C(C(=O)CC(c3ccccc3)C2)C1c1ccc([N+](=O)[O-])cc1 (centres undefined)
24 | 30 µM | > 100 µM | > 100 µM | – | – | – | – | – | – | N#CC1=C(N)OC2=C(C(=O)CC(c3ccccc3)C2)C1Cc1ccccc1 (centres undefined)
25 | 3.6 µM | > 100 µM | > 100 µM | – | – | – | – | – | – | N#CC1=C(N)OC2=C(C(=O)CC(c3ccccc3)C2)C1c1ccc2ccccc2c1 (centres undefined)
